Reference: patent publication US20080200448A1, “New Pyridine Analogues VIII 518” (ASTRAZENECA AB, priority 2007, published 2008)

Biological target: T1, P2Y12 receptor (Homo sapiens, UniProt Q9H244)
T1 construct: expressed in transfected cells; host or cells: CHO cells (membrane preparation)
Assay: Functional inhibition of 2-Me-S-ADP induced P2Y12 signalling (35S-GTPγS binding, cell membranes)
Format: biochemical
Settings: 35S-GTPγS assay, membranes, EC80 concentration of 2-methyl-thio-adenosine diphosphate, 30° C. for 45 min; read-out: GTPγS (IC50 μM)
Procedure, shortened: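 Membranes (5 μg) from P2Y12-transfected CHO cells in pH 7.4 HEPES buffer with 10 μM GDP and saponin were stimulated with an EC80 of 2-methyl-thio-ADP plus compound and ^35S-GTPγS for 45 min at 30° C. Filter-retained ^35S-GTPγS was counted, normalised between agonist and no-agonist activity, and IC50 taken from a four-parameter fit.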

T1 sequence (Q9H244 whole entry): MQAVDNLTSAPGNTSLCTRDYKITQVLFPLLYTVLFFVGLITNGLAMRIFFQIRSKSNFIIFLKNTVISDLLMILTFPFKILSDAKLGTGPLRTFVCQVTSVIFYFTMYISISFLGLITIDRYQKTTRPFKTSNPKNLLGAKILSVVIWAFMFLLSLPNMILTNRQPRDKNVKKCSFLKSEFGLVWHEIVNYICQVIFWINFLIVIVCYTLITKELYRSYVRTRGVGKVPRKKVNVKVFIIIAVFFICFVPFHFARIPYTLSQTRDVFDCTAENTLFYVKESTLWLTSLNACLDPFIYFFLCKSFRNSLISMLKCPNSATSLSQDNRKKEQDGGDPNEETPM

Row | IC50 [µM] | SMILES
1 | 0.016 | COc1ccc(CS(=O)(=O)NC(=O)C2CCN(c3nc(CN4CCCC4=O)c(C(=O)OC(C)C)cc3C#N)CC2)cc1 [Example 83, Isopropyl 5-cyano-6-(4-{[(4-methoxybenzyl)sulfonyl]carbamoyl}piperidin-1-yl)-2-[(2-oxopyrrolidin-1-yl)methyl]nicotinate]
2 | 0.497 | CC(C)OC(=O)c1cc(C#N)c(N2CCC(C(=O)NS(=O)(=O)Cc3ccc([Si](C)(C)C)cc3)CC2)nc1CN1CCCC1=O [Example 99, Isopropyl 5-cyano-2-[(2-oxopyrrolidin-1-yl)methyl]-6-[4-({[4-(trimethylsilyl)benzyl]sulfonyl}carbamoyl)piperidin-1-yl]nicotinate]
3 | 0.017 | CCOC(=O)c1cc(C#N)c(N2CCC(C(=O)NS(=O)(=O)Nc3ccc(F)cc3)CC2)nc1CN1CCCC1=O [Example 77, Ethyl 5-cyano-6-[4-({[(4-fluorophenyl)amino]sulfonyl}carbamoyl)piperidin-1-yl]-2-[(2-oxopyrrolidin-1-yl)methyl]nicotinate]
4 | 0.014 | CC(C)OC(=O)c1cc(C#N)c(N2CCC(C(=O)NS(=O)(=O)Cc3ccc(Cl)cc3F)CC2)nc1CN1CCCC1=O [Example 52, Isopropyl 6-(4-{[(4-chloro-2-fluorobenzyl)sulfonyl]carbamoyl}piperidin-1-yl)-5-cyano-2-[(2-oxopyrrolidin-1-yl)methyl]nicotinate]
5 | 0.05 | CCOC(=O)c1cc(C#N)c(N2CCC(C(=O)NS(=O)(=O)Cc3ccccc3)CC2)nc1OCCn1cccc1 [Example 113, Ethyl 6-{4-[(benzylsulfonyl)carbamoyl]piperidin-1-yl}-5-cyano-2-[2-(1H-pyrrol-1-yl)ethoxy]nicotinate]
6 | 0.155 | CCCOC(=O)c1cc(Cl)c(N2CCC(C(=O)NS(=O)(=O)N(C)c3ccc(F)cc3)CC2)nc1CN1CCCC1=O [Example 95, Propyl 5-chloro-6-[4-({[(4-fluorophenyl)(methyl)amino]sulfonyl}carbamoyl)piperidin-1-yl]-2-[(2-oxopyrrolidin-1-yl)methyl]nicotinate]
7 | 1.07 | CCOC(=O)c1cc(C#N)c(N2CC(C(=O)NS(=O)(=O)Cc3ccccc3)C2)nc1CN(C)C [Example 6, Ethyl 6-{3-[(benzylsulfonyl)carbamoyl]azetidin-1-yl}-5-cyano-2-[(dimethylamino)methyl]nicotinate]
8 | 0.061 | CCOC(=O)c1cc(C#N)c(N2CCC(C(=O)NS(=O)(=O)CC3CCCCC3)CC2)nc1CN1CCCCC1=O [Example 61, Ethyl 5-cyano-6-(4-{[(cyclohexylmethyl)sulfonyl]carbamoyl}piperidin-1-yl)-2-[(2-oxopiperidin-1-yl)methyl]nicotinate]
9 | 0.016 | CCOC(=O)c1cc(C#N)c(N2CCC(C(=O)NS(=O)(=O)Cc3ccccc3)CC2)nc1SCC(=O)OC(C)C [Example 111, Ethyl 6-{4-[(benzylsulfonyl)carbamoyl]piperidin-1-yl}-5-cyano-2-[(2-isopropoxy-2-oxoethyl)thio]nicotinate]
10 | 0.0073 | CCOC(=O)c1cc(C#N)c(N2CCC(C(=O)NS(=O)(=O)N(C)c3ccc(F)cc3)CC2)nc1CN1CCCC1=O [Example 76, Ethyl 5-cyano-6-[4-({[(4-fluorophenyl)(methyl)amino]sulfonyl}carbamoyl)piperidin-1-yl]-2-[(2-oxopyrrolidin-1-yl)methyl]nicotinate]
11 | 0.021 | CC(C)OC(=O)c1cc(C#N)c(N2CCC(C(=O)NS(=O)(=O)N(C)c3ccccc3)CC2)nc1CN1CCCC1=O [Example 78, Isopropyl 5-cyano-6-[4-({[methyl(phenyl)amino]sulfonyl}carbamoyl)piperidin-1-yl]-2-[(2-oxopyrrolidin-1-yl)methyl]nicotinate]
12 | 0.023 | CC(C)OC(=O)c1cc(C#N)c(N2CCC(C(=O)NS(=O)(=O)Cc3ccc(F)cc3)CC2)nc1CN1CCCC1=O [Example 51, Isopropyl 5-cyano-6-(4-{[(4-fluorobenzyl)sulfonyl]carbamoyl}piperidin-1-yl)-2-[(2-oxopyrrolidin-1-yl)methyl]nicotinate]
13 | 1.58 | COC(=O)c1cc(Cl)c(N2CCC(C(=O)NS(=O)(=O)Cc3ccccc3)CC2)nc1CN1CCCCC1=O [Example 129, Methyl 6-{4-[(benzylsulfonyl)carbamoyl]piperidin-1-yl}-5-chloro-2-[(2-oxopiperidin-1-yl)methyl]nicotinate]
14 | 0.012 | CC(C)OC(=O)c1cc(C#N)c(N2CCC(C(=O)NS(=O)(=O)Cc3ccc(Cl)cc3)CC2)nc1CN1CCCC1=O [Example 48, Isopropyl 6-(4-{[(4-chlorobenzyl)sulfonyl]carbamoyl}piperidin-1-yl)-5-cyano-2-[(2-oxopyrrolidin-1-yl)methyl]nicotinate]
15 | 0.934 | CCOC(=O)c1cc(C#N)c(N2CCC(C(=O)NS(=O)(=O)Cc3ccc([Si](C)(C)C)cc3)CC2)nc1CN1CCCCC1=O [Example 102, Ethyl 5-cyano-2-[(2-oxopiperidin-1-yl)methyl]-6-[4-({[4-(trimethylsilyl)benzyl]sulfonyl}carbamoyl)piperidin-1-yl]nicotinate]
16 | 0.066 | CCOC(=O)CCCc1nc(N2CCC(C(=O)NS(=O)(=O)Cc3ccccc3)CC2)c(C#N)cc1C(=O)OCC [Example 106, Ethyl 6-{4-[(benzylsulfonyl)carbamoyl]piperidin-1-yl}-5-cyano-2-(4-ethoxy-4-oxobutyl)nicotinate]
17 | 0.038 | CCOC(=O)c1cc(C#N)c(N2CCC(C(=O)NS(=O)(=O)Cc3ccccc3)CC2)nc1OCCNC(C)=O [Example 20, Ethyl 2-(2-acetamidoethoxy)-6-{4-[(benzylsulfonyl)carbamoyl]piperidin-1-yl}-5-cyanonicotinate]

Row | SMILES | IC50 [µM]
18 | CCOC(=O)c1cc(C#N)c(N2CCC(C(=O)NS(=O)(=O)Cc3ccccc3)CC2)nc1COC(C)=O [Example 5, Ethyl 2-(acetoxymethyl)-6-{4-[(benzylsulfonyl)carbamoyl]piperidin-1-yl}-5-cyanonicotinate] | 0.044
